Test in all cases: Cytotoxic activity of dimers (ATP luminescence or MTS cell proliferation assay)
Common to all, as to assay type: cell-based

The test system of assay [1] is N87 gastric cancer cell line. The note with it: N87 cells; free dimer; 72 h incubation. As to the method:
(§1) The cytotoxic activity of dimers of this invention can be tested against various cancer cell lines, such as H226 lung cancer, DMS 79 lung cancer, H187 lung cancer, N87 gastric cancer, 786-O renal cancer, and/or OVCAR3 ovarian cancer cell lines. The ability of dimers to inhibit cell proliferation can be measured by either an ATP luminescence assay or an MTS cell proliferation assay.
(§2) This is a general procedure for an ATP luminescence assay: Cells are seeded at 1×10^3 cells/well in 96-well plates for 3 h for ATP CellTiterGlo™ assays, respectively. Serial dilutions (1:3) of compounds are added to the wells. Plates are allowed to incubate for 72 h. A CellTiterGlo™ cell viability kit from Promega is used to measure ATP content of cells treated with test compounds following manufacturer's instruction. A decrease in the ATP content is a measure of decrease in cellular viability. The EC50 value—the concentration at which an agent reduces cell viability by 50% of the maximum effect—can be calculated using PRISM™ software, version 5.0 (GraphPad Software, La Jolla, Calif., USA).
(§3) The MTS cell proliferation assay was performed as follows: CellTiter 96 Aqueous Non-Radioactive Cell proliferation Kit from Promega (Madison, Wis.) is used to determine the number of viable cells in cell proliferation assay. Tumor cells are plated at certain seeding densities in sterile 384-well black clear bottom Matrix plates at 40 μL per well and incubated overnight at 37° C. in 5% CO2 before assaying. On the next day, one set of cell plates (10 plates) is used to determine time zero cell density, and 3-(4,5-dimethylthiazol-2-yl)-5-(3-carboxymethoxyphenyl)-2-(4-sulfophenyl)-2H-tetrazolium is added at 4 μL/well into 10 plates followed by incubation at 37° C. in 5% CO2 for three hours. This tetrazolium reagent is bioreduced by […] to form a formazan product which is soluble in aqueous solution. Absorbance at 490 nm is measured on an Envision reader (Perkin Elmer, Boston, Mass.). On the same day, compounds are added into remaining cell plates (T72 plates) and incubated at 37° C. in 5% CO2. After 72 hours, 4 μL MTS reagents are then added into those cell plates. The plates are further incubated at 37° C. in 5% CO2 for three hours and the absorbance values at A490 were measured on an Envision reader.

Assay [2] concerns H187 lung cancer cell line. The note with it: Homo sapiens, NCI-H187; H187 cells; free dimer; 72 h incubation. As to the method: as §1, §2, §3
Assay [3] concerns DMS 79 lung cancer cell line. Conditions: Homo sapiens; DMS 79 cells; free dimer; 72 h incubation. As to the method:
as §1, §2, §3

What is called IC50 is the concentration at which inhibition is half-maximal. `COc1cc2c(cc1OCc1cc(COc3cc4c(cc3OC)C(=O)N3Cc5ccccc5C[C@H]3C=N4)c3ccccc3n1)N=C[C@@H]1Cc3ccccc3CN1C2=O` [IIa-07]: the IC50 in assay [1] is 0.25 nM.

In assay [1], `COc1cc2c(cc1OCc1cncc(COc3cc4c(cc3OC)C(=O)N3Cc5ccccc5C[C@H]3C=N4)c1)N=C[C@@H]1Cc3ccccc3CN1C2=O` [IIa-06] registered an IC50 of 0.14 nM.

For `COc1cc2c(cc1OCc1cccc(COc3cc4c(cc3OC)C(=O)N3Cc5ccccc5C[C@H]3C=N4)n1)N=C[C@@H]1Cc3ccccc3CN1C2=O` [IIa-01], the IC50 in assay [1] turned out to be 0.02 nM; in assay [2] it was 0.001 nM; in assay [3] it was 0.001 nM.

The compound `COc1cc2c(cc1OCc1cccc(COc3cc4c(cc3OC)C(=O)N3Cc5ccccc5C[C@H]3CN4)n1)NC[C@@H]1Cc3ccccc3CN1C2=O` [IIa-15] yielded an IC50 in assay [1] of 2.88 nM.

`COc1cc2c(cc1OCc1cccc(COc3cc4c(cc3OC)C(=O)N3Cc5cccnc5C[C@H]3C=N4)n1)N=C[C@@H]1Cc3ccccc3CN1C2=O` [IIa-16] came in with an IC50 in assay [1] of 0.08 nM.

`COc1cc2c(cc1OCc1cc(O)cc(COc3cc4c(cc3OC)C(=O)N3Cc5ccccc5C[C@H]3C=N4)n1)N=C[C@@H]1Cc3ccccc3CN1C2=O` [IIa-11] showed an IC50 in assay [1] of 4.92 nM.

Take `COc1cc2c(cc1OCc1cccc(COc3cc4c(cc3OC)C(=O)N3Cc5cc(N)ccc5C[C@H]3C=N4)n1)N=C[C@@H]1Cc3ccccc3CN1C2=O` [IIa-03]: the IC50 turned out to be 0.03 nM in assay [1], 0.002 nM in assay [2] and 0.002 nM in assay [3].

`COc1cc2c(cc1OCc1cccc(COc3cc4c(cc3OC)C(=O)N3Cc5cccnc5C[C@@H]3C=N4)n1)N=C[C@@H]1Cc3ccccc3CN1C2=O` [Dimer 100] registered an IC50 in assay [1] of 0.1 nM.

The compound `COc1cc2c(cc1OCc1cc(Cl)cc(COc3cc4c(cc3OC)C(=O)N3Cc5ccccc5C[C@H]3C=N4)n1)N=C[C@@H]1Cc3ccccc3CN1C2=O` [IIa-13] came in with an IC50 in assay [1] of 0.03 nM.

Compound `COc1cc2c(cc1OCc1cc(CO)cc(COc3cc4c(cc3OC)C(=O)N3Cc5ccccc5C[C@H]3C=N4)n1)N=C[C@@H]1Cc3ccccc3CN1C2=O` [IIa-08] registered an IC50 in assay [1] of 2.71 nM.

For the origin of these results see patent US9822112B2, “Heteroarylene-bridged benzodiazepine dimers, conjugates thereof, and methods of making and using” (priority 2015, dated 2017).
